Columns and labels:
RON = RON (Homo sapiens, UniProt Q04912); test: Inhibitory activity against RON, TR-FRET kinase assay; format: biochemical; settings: TR-FRET enzyme assay
How it was run: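 Compounds (3-fold series from a 1 mM DMSO stock) were preincubated 20–30 min at RT with RON (0.4 nM solution) in pH 7.4 HEPES, 10 mM MgCl2 buffer. A 2× cocktail of 40 uM ULight-Poly GT and 100 nM ATP was then added for 60 min at RT. After EDTA stop, Eu anti-phosphotyrosine TR-FRET (665/620 nm) was read and IC50 derived.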

cMET = cMET (Homo sapiens, UniProt P08581); test: Inhibitory activity against MET (cMET), TR-FRET kinase assay; format: biochemical; settings: TR-FRET enzyme assay
Sequence of cMET (P08581 25-1390): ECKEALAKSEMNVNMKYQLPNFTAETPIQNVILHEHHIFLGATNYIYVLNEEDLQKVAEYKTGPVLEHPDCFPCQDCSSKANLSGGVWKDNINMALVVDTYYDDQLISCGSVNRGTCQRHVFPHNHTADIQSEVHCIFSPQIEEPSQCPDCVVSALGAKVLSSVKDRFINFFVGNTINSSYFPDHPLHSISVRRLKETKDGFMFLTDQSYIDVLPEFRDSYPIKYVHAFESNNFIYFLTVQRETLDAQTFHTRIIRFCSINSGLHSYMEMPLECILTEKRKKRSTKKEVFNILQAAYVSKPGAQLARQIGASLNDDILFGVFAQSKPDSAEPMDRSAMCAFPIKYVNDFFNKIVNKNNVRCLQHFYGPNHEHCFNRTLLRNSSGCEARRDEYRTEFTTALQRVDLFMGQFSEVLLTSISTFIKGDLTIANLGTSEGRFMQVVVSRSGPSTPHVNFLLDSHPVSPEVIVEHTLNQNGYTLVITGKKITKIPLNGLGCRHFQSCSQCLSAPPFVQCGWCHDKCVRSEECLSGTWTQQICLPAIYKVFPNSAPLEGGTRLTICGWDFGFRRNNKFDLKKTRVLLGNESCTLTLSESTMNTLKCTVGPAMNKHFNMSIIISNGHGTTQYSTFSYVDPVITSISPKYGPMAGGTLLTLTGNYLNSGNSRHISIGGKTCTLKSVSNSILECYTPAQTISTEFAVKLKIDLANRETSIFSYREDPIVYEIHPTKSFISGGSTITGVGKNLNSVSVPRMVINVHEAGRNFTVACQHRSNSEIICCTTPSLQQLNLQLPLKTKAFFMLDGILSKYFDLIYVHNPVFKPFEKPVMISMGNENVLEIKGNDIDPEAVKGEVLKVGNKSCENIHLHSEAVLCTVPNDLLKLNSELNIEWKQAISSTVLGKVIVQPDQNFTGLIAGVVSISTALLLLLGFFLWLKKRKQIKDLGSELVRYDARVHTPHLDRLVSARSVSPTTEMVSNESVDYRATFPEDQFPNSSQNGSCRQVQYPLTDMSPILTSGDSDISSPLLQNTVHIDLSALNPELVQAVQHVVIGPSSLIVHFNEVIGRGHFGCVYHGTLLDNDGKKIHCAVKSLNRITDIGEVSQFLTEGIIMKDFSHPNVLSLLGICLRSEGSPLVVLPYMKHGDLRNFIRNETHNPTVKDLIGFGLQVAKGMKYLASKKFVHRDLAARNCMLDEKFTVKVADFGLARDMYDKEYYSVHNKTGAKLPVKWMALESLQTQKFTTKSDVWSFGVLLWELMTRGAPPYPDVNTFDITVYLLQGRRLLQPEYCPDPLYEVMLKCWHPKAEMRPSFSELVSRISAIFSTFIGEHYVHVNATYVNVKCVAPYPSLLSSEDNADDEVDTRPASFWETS
How it was run: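 Human cMET (2 nM dilution) preincubated with compound 20-30 min at room temperature in HEPES pH 7.4 buffer with MnCl2/MgCl2, then 60 min with TK peptide and ATP substrate cocktail (5 uM peptide, 10 mM ATP, prepared at 2× final). EDTA-stopped; europium anti-phosphotyrosine TR-FRET read at 620/665 nm; pIC50 derived.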

Sequence of RON (Q04912 25-1400, species assumed): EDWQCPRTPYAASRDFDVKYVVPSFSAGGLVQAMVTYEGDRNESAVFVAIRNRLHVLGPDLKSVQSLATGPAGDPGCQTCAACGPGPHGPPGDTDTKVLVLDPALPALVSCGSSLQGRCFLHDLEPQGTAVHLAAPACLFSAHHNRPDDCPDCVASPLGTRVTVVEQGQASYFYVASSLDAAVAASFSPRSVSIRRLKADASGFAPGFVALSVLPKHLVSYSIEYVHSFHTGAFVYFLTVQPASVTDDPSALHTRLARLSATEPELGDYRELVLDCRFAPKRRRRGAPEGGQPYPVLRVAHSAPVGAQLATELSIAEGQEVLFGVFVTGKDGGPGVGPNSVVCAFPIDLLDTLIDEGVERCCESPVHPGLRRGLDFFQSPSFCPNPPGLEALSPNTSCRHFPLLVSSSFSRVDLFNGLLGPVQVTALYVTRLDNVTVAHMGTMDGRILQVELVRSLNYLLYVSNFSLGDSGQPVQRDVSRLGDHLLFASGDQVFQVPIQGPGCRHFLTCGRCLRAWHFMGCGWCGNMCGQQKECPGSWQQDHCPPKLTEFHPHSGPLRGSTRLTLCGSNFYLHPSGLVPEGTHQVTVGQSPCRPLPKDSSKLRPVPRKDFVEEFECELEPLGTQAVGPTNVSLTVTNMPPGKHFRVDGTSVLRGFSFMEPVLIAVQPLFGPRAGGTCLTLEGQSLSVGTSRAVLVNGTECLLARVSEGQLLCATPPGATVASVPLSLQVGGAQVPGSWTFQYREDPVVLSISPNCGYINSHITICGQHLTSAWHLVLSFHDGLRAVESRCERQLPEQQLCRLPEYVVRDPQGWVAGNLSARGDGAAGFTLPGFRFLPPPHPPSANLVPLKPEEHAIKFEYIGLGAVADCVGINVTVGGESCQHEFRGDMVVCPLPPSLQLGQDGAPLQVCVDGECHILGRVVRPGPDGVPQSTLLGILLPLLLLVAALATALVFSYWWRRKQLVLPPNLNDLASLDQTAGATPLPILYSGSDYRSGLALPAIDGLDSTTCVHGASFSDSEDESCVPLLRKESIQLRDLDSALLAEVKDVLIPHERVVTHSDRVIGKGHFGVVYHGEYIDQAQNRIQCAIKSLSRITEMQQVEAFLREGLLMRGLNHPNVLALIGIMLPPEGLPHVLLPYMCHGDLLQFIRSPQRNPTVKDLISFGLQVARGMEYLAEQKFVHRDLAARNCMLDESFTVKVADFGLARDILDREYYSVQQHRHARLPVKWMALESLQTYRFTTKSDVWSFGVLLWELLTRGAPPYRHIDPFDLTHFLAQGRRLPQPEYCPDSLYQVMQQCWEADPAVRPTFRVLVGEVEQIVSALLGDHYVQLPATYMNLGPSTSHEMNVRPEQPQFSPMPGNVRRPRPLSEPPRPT

Structure (SMILES) | IC50 (RON) | IC50 (cMET)
Nc1ncnc(Oc2ccc(NC(=O)c3cnn(-c4ccncn4)c3C(F)(F)F)cc2F)c1Cl [Example 61, N-[4-(6-amino-5-chloro-pyrimidin-4-yl)oxy-3-fluoro-phenyl]-1-pyrimidin-4-yl-5-(trifluoromethyl)pyrazole-4-carboxamide] | 0.5 to 5 µM | > 5 µM
Cc1ccnc(-n2ncc(C(=O)Nc3ccc(Oc4ncnc(N)c4Cl)c(F)c3)c2C(F)(F)F)n1 [Example 62, N-[4-(6-amino-5-chloro-pyrimidin-4-yl)oxy-3-fluoro-phenyl]-1-(4-methylpyrimidin-2-yl)-5-(trifluoromethyl)pyrazole-4-carboxamide] | 0.05 to 0.5 µM | > 5 µM
Nc1ncnc(Oc2ccc(NC(=O)c3cnn(-c4cc(F)ccn4)c3C(F)(F)F)cc2F)c1Cl [Example 63, N-[4-(6-amino-5-chloro-pyrimidin-4-yl)oxy-3-fluoro-phenyl]-1-(4-fluoro-2-pyridyl)-5-(trifluoromethyl)pyrazole-4-carboxamide] | 0.05 to 0.5 µM | > 5 µM
Nc1ncnc(Oc2ccc(NC(=O)c3cnn(-c4cc(O)ccn4)c3C(F)(F)F)cc2F)c1Cl [Example 64, N-[4-(6-amino-5-chloro-pyrimidin-4-yl)oxy-3-fluoro-phenyl]-1-(4-hydroxy-2-pyridyl)-5-(trifluoromethyl)pyrazole-4-carboxamide] | 0.05 to 0.5 µM | > 5 µM
O=C(Nc1ccc(Oc2ncnc(NC3CC3)c2Cl)c(F)c1)c1cnn(-c2ncccc2F)c1C(F)(F)F [Example 65, N-[4-[5-chloro-6-(cyclopropylamino)pyrimidin-4-yl]oxy-3-fluoro-phenyl]-1-(3-fluoro-2-pyridyl)-5-(trifluoromethyl)pyrazole-4-carboxamide] | 0.5 to 5 µM | > 5 µM
O=C(Nc1ccc(Oc2ncnc(NC3CC3)c2Cl)c(F)c1)c1cnn(-c2ncccc2Cl)c1C(F)(F)F [Example 66, N-[4-[5-chloro-6-(cyclopropylamino)pyrimidin-4-yl]oxy-3-fluoro-phenyl]-1-(3-chloro-2-pyridyl)-5-(trifluoromethyl)pyrazole-4-carboxamide] | > 5 µM | > 5 µM

— US20240425480A1, “NOVEL PYRIDINE DERIVATIVE COMPOUND AS RON INHIBITOR” (LG CHEM, LTD., priority 2021, published 2024)
